Source: patent publication US20250296953A1, “3,4-THIAZOLO-STEROIDS AND METHODS OF MAKING AND USING THE SAME” (Arkansas State University - Jonesboro, priority 2018, published 2025)
Read-outs that look alike come from different tables or passages of the source.

Experiments:
[1] = system: 60 different human tumor cell lines; test: cells
NCI-H522 (NSCLC) = test: NCI 60 one dose screen; assay type: cell-based, human; conditions: Non-small Cell Lung Cancer
gliosarcoma (SF-539) = test: NCI 60 five dose screen
SF-295 = test: NCI 60 one dose screen; assay type: cell-based, human; conditions: one dose; CNS Cancer; SF-295
HCT-15 (Colon Cancer) = test: NCI 60 one dose screen; assay type: cell-based, human
RPMI-8226 = test: NCI 60 five dose screen
SF-539 = test: NCI 60 one dose screen; assay type: cell-based, human; conditions: one dose; CNS Cancer; SF-539

C[C@]12CCc3sc(NCCc4ccccc4)nc3C1=CC[C@@H]1[C@@H]2CC[C@]2(C)C(=O)CC[C@@H]12 [IIa.2, (1S,2R,13R,14S,18S)-2,18-dimethyl-7-(2-phenylethylamino)-6-thia-8-azapentacyclo [11.7.0.02,10.05,9.014,18]icosa-5(9),7,10-trien-17-one]
CC50 ([1]; HOP-62, read-out: LC50): > 100 µM
GI50 ([1]; HOP-92): 2.75 µM
CC50 ([1]; HOP-92, read-out: LC50): > 100 µM
GI50 ([1]; HT-29): 2.21 µM
CC50 ([1]; HT-29, read-out: LC50): > 100 µM
GI50 ([1]; Hs-578T): 2.85 µM
CC50 ([1]; Hs-578T, read-out: LC50): > 100 µM
GI50 ([1]; IGROV-1): 2.6 µM
CC50 ([1]; IGROV-1, read-out: LC50): 65.6 µM
GI50 ([1]; K562): 2.89 µM
CC50 ([1]; K562, read-out: LC50): > 100 µM
GI50 ([1]; KM12): 3.6 µM
CC50 ([1]; KM12, read-out: LC50): > 100 µM
GI50 ([1]; LOX IMVI): 1.7 µM
CC50 ([1]; LOX IMVI, read-out: LC50): 5.91 µM
GI50 ([1]; M14): 3.63 µM
CC50 ([1]; M14, read-out: LC50): > 100 µM
GI50 ([1]; MCF7): 2.68 µM
CC50 ([1]; MCF7, read-out: LC50): > 100 µM
GI50 ([1]; MDA-MB-231): 3.4 µM
CC50 ([1]; MDA-MB-231, read-out: LC50): > 100 µM
GI50 ([1]; MDA-MB-435): 3.01 µM
CC50 ([1]; MDA-MB-435, read-out: LC50): > 100 µM
GI50 ([1]; MDA-MB-468): 2.99 µM
CC50 ([1]; MDA-MB-468, read-out: LC50): > 100 µM
GI50 ([1]; MOLT-4): 2.58 µM
CC50 ([1]; MOLT-4, read-out: LC50): > 100 µM
GI50 ([1]; Malme-3M): 2.18 µM
CC50 ([1]; Malme-3M, read-out: LC50): > 100 µM
GI50 ([1]; NCI-H23): 5.03 µM
GI50 ([1]; NCI-H226): 2.42 µM
CC50 ([1]; NCI-H226, read-out: LC50): > 100 µM
GI50 ([1]; NCI-H322M): 96.9 µM
CC50 ([1]; NCI-H322M, read-out: LC50): > 100 µM
GI50 ([1]; NCI-H460): 4.47 µM
CC50 ([1]; NCI-H460, read-out: LC50): > 100 µM
GI50 ([1]; NCI-H522): 1.78 µM
CC50 ([1]; NCI-H522, read-out: LC50): 7.45 µM
GI50 ([1]; NCI/ADR-RES): 2.31 µM
CC50 ([1]; NCI/ADR-RES, read-out: LC50): > 100 µM
GI50 ([1]; OVCAR-3): 2.08 µM
CC50 ([1]; OVCAR-3, read-out: LC50): > 100 µM
GI50 ([1]; OVCAR-4): 3.93 µM
CC50 ([1]; OVCAR-4, read-out: LC50): > 100 µM
GI50 ([1]; OVCAR-5): 4.44 µM
CC50 ([1]; OVCAR-5, read-out: LC50): > 100 µM
GI50 ([1]; OVCAR-8): 2.77 µM
CC50 ([1]; OVCAR-8, read-out: LC50): > 100 µM
GI50 ([1]; RXF 393): 1.73 µM
CC50 ([1]; RXF 393, read-out: LC50): 30.9 µM
GI50 ([1]; SF-268): 4.62 µM
CC50 ([1]; SF-268, read-out: LC50): > 100 µM
GI50 ([1]; SK-MEL-2): 17 µM
CC50 ([1]; SK-MEL-2, read-out: LC50): > 100 µM
GI50 ([1]; SK-MEL-5): 4.57 µM
CC50 ([1]; SK-MEL-5, read-out: LC50): > 100 µM
GI50 ([1]; SK-MEL-28): 3.37 µM
CC50 ([1]; SK-MEL-28, read-out: LC50): > 100 µM
GI50 ([1]; SK-OV-3): > 100 µM
CC50 ([1]; SK-OV-3, read-out: LC50): > 100 µM
GI50 ([1]; SN12C): 2.89 µM
CC50 ([1]; SN12C, read-out: LC50): > 100 µM
GI50 ([1]; SNB-19): 97.5 µM
CC50 ([1]; SNB-19, read-out: LC50): > 100 µM
GI50 ([1]; SNB-75): 2.67 µM
CC50 ([1]; SNB-75, read-out: LC50): > 100 µM
GI50 ([1]; SW-620): 2.3 µM
CC50 ([1]; SW-620, read-out: LC50): > 100 µM
GI50 ([1]; T47D): 3.05 µM
CC50 ([1]; T47D, read-out: LC50): > 100 µM
GI50 ([1]; TK-10): 4.15 µM
CC50 ([1]; TK-10, read-out: LC50): > 100 µM
GI50 ([1]; U-251): 4.97 µM
CC50 ([1]; U-251, read-out: LC50): > 100 µM
GI50 ([1]; UACC-62): 2.67 µM
CC50 ([1]; UACC-62, read-out: LC50): > 100 µM
GI50 ([1]; UACC-257): 4.92 µM
CC50 ([1]; UACC-257, read-out: LC50): > 100 µM
GI50 ([1]; UO-31): 4.03 µM
CC50 ([1]; UO-31, read-out: LC50): > 100 µM
Growth Percent (NCI-H522 (NSCLC)): 44.08%
GI50 (gliosarcoma (SF-539); Homo sapiens, SF-539): 1.69 µM
CC50 (gliosarcoma (SF-539); Homo sapiens, SF-539, read-out: LC50): 7.75 µM
TGI (gliosarcoma (SF-539); SF-539 (CNS Cancer), five dose): 3.62E−6
Growth Percent (SF-295): 68.44%
Growth Percent (HCT-15 (Colon Cancer)): 22.48%
GI50 (RPMI-8226; Homo sapiens, RPMI-8226): 1.79 µM
CC50 (RPMI-8226; Homo sapiens, RPMI-8226, read-out: LC50): > 100 µM
TGI (RPMI-8226; RPMI-8226 (Leukemia), five dose): 5.69E−6
Growth Percent (SF-539): 64.79%
